From patent US6541480B2, “1-aryl-1,8-naphthylidin-4-one derivative as type IV phosphodiesterase inhibitor” (Suntory Limited, priority 1997, dated 2003)
Structures can show the parent of a compound that is named as a salt.

Assays:
[1] = system: TNF-α production by LPS stimulated mouse peritoneal macrophages; experiment: TNF-α production inhibitory activity by LPS stimulated macrophages (ELISA); assay type: cell-based; conditions: LPS 10 μg/ml, 8 hours
Description: (1) Method of Measurement of TNF-α Production Inhibitory Activity by LPS Stimulated Macrophages
The following assay was used to evaluate the ability of the compound of the present invention to suppress TNF-α production by LPS stimulated macrophages according to Immuno pharmacol. 29, 121-127 (1995).
1) 6 to 10 week old female BALB/c mice were used, 2 ml portions of thioglycolate were intraperitoneally administered, and the abdominal cavities were washed by 10 ml of PBS after 4 days, whereby 1 to 2×10^7 peritoneal cells were obtained per mouse. These were suspended in a hemocyte solution (0.75% ammonium chloride, 17 mM tris-hydrochlorate buffer, pH7.2), centrifuged, then resuspended in an RPMI1640 medium including 10% fetal calf serum and seeded in a 96-well cell culture plate at a density of 1×10^5 cells/50 μl/well. Since these cells adhered strongly to the tissue culture plate and were positive in nonspecific esterase staining, they were used for the test as mouse peritoneal macrophages. Mouse peritoneal macrophages were precultured overnight at 37° C. in 5% CO2 for the experiment.
2) E. Coli (serum type 055:B5) derived LPS was dissolved in PBS in a concentration of 1 mg/ml, then sterilized by filtration. The test compound was dissolved in DMSO to make a 1000-fold concentration solution of the final concentration of use. 10 μl of the above LPS stock solution (final concentration 10 μg/ml) and 1 μl of the tested substance stock solution were added and mixed in 0.5 ml of RPMI1640 medium containing 10% fetal calf serum. This was added to the above cells at 50 μl/well and cultured for 8 hours. The cultured supernatant was recovered from each well and the TNF-α concentration was measured by the ELISA method (Cytoscreen® Immunoassay Kit Mouse TNF-α, BioSource International).

[2] = 28-day repeated administration toxicity in mice; assay type: in vivo; conditions: 10 mg/kg per day administered for 28 days to mice
[3] = system: type IV phosphodiesterase; experiment: Type IV phosphodiesterase inhibiting activity (3H-cAMP hydrolysis, PDE IV fraction from U937 cells); assay type: biochemical; conditions: PDE IV fraction from human U937 cells, 30° C., 30 minutes
Description: (1) Method of Measurement of Type IV Phosphodiesterase Inhibiting Activity
The following assay was used to evaluate the ability of the compound of the present invention to suppress type IV phosphodiesterase, according to Biochemical.
1) Type IV phosphodiesterase activity fractions were prepared as follows. Human histiocytic lymphoma cell line U937 was cultured in an RPMI1640 medium containing 10% fetal calf serum to obtain 10^9 cells of U937. The cells were recovered by centrifugation and suspended in 40 ml of buffer A (20 mM bis-tris, 5 mM 2-mercaptoethanol, 2 mM benzamidine, 2 mM EDTA, 0.1 mM 4-(2-aminoethyl)benzensulfonyl hydrochloride, 50 mM sodium acetate, pH=6.5). The cells were broken by a sonication and centrifuged (4° C., 10,000G, 10 minutes) to obtain a supernatent. This was filtered by a 0.45 μm filter to obtain the soluble fraction.
The soluble fraction obtained was applied into a 1×10 cm DEAE Sepharose column equalibrated with the buffer A. 120 ml of the buffer A containing a linear gradient solution of 0.05 to 1 M sodium acetate was used to separate the phosphodiesterase and recover 24 5-ml fractions. Each of the fractions was measured for the cAMP phosphodiesterase activity.
2) The test compound was reacted at a desired concentration in a reaction mixture containing 20 mM tris-HCl (pH 7.5), 1 mM MgCl2, 100 μM EDTA, 330 μg/ml calf serum albumin, 10 μg/ml 5′-nucleotidase, 0.4 μCi ^3H-cAMP ([…] cAMP) and the type IV phosphodiesterase stored solution at 30° C. for 30 minutes. QAE-Sephadex suspended in 10 mM of hepes-Na (pH-7.0) was added to the reaction mixture which was then allowed to stand for 5 minutes, then the supernatant was obtained, QAE-Sephadex was further added, to the supernatant, and was allowed to stand for 5 minutes, then the supernatant was obtained and measured for radioactivity.

IC50 ([1]; Peritoneal macrophage) [nM] | IC50 [3] [nM] | IC50 [1] [nM] | SMILES | death [2]
 | 250 | 700 | O=C(NCCc1ccncc1)c1cn(-c2ccccc2)c2ncccc2c1=O [Example 119, 1-Phenyl-N-[2-(4-pyridyl)ethyl]-1,4-dihydro[1,8]naphthylidin-4-one-3-carboxamide] | 
1 | 58 |  | COc1ccc(-n2cc(C(=O)Nc3ccncc3)c(=O)c3cccnc32)cc1 [Example 122, 1-(4-Methoxyphenyl)-N-(4-pyridyl)-1,4-dihydro[1,8]naphthylidin-4-one-3-carboxamide] | 
0.5 | 0.8 |  | O=C(Nc1c(Cl)cncc1Cl)c1cn(-c2ccc(Cl)cc2)c2ncccc2c1=O [Example 125, 1-(4-Chlorophenyl)-N-(3,5-dichloropyridin-4-yl)-1,4-dihydro[1,8]naphthylidin-4-one-3-carboxamide] | 
300 | 56 |  | O=C(Nc1ccncc1)c1cn(-c2cccc(CO)c2)c2ncccc2c1=O [Example 127, 1-(3-Hydroxymethylphenyl)-N-(4-pyridyl)-1,4-dihydro[1,8]naphthylidin-4-one-3-carboxamide] | 
1000 | 760 |  | O=C(Nc1ccncc1)c1cn(-c2ccccn2)c2ncccc2c1=O [Example 132, N-(4-Pyridyl)-1-(2-pyridyl)-1,4-dihydro[1,8]naphthylidin-4-one-3-carboxamide] | 
 | 6.4 | 4 | O=C(Nc1c(Cl)cncc1Cl)c1cn(-c2ccccn2)c2ncccc2c1=O [Example 133] | 
800 | 470 |  | O=C(Nc1cccnc1)c1cn(-c2cccnc2)c2ncccc2c1=O [Example 134, 1,N-bis-(3-Pyridyl)-1,4-dihydro[1,8]naphthylidin-4-one-3-carboxamide] | 
500 | 130 |  | O=C(Nc1ccncc1)c1cn(-c2cccnc2)c2ncccc2c1=O [Example 135, 1-(3-Pyridyl)-N-(4-pyridyl)-1,4-dihydro[1,8]naphthylidin-4-one-3-carboxamide] | 
 | 0.8 | 3 | O=C(Nc1c(Cl)cncc1Cl)c1cn(-c2cccnc2)c2ncccc2c1=O [Example 136, N-(3,5-Dichloropyridin-4-yl)-1-(3-pyridyl)-1,4-dihydro[1,8]naphthylidin-4-one-3-carboxamide] | 
4 | 4.9 |  | O=C(Nc1c(Cl)cccc1Cl)c1cn(-c2ccncc2)c2ncccc2c1=O [Example 137, N-(2,6-Dichlorophenyl)-1-(4-pyridyl)-1,4-dihydro[1,8]naphthylidin-4-one-3-carboxamide] | 
400 | 44 |  | O=C(Nc1cccnc1)c1cn(-c2ccncc2)c2ncccc2c1=O [Example 138, N-(3-Pyridyl)-1-(4-pyridyl)-1,4-dihydro[1,8]naphthylidin-4-one-3-carboxamide] | 
 | 36 | 5 | Cc1cnccc1NC(=O)c1cn(-c2ccncc2)c2ncccc2c1=O [Example 140, N-(3-Methylpyridin-4-yl)-1-(4-pyridyl)-1,4-dihydro[1,8]naphthylidin-4-one-3-carboxamide] | 
150 | 140 |  | Nc1ccc(-n2cc(C(=O)Nc3ccncc3)c(=O)c3cccnc32)cn1 [Example 143, 1-(2-Aminopyridin-5-yl)-N-(4-pyridyl)-1,4-dihydro[1,8]naphthylidin-4-one-3-carboxamide hydrochloride] | 
700 | 140 |  | O=C(Nc1ccncc1)c1cn(-c2ccc(OCc3ccccc3)nc2)c2ncccc2c1=O [Example 144, 1-(2-Benzyloxypyridin-5-yl)-N-(4-pyridyl)-1,4-dihydro[1,8]naphthylidin-4-one-3-carboxamide] | 
10 | 1.7 |  | O=C(Nc1c(Cl)cncc1Cl)c1cn(-c2ccc(OCc3ccccc3)nc2)c2ncccc2c1=O [Example 146, 1-(2-Benzyloxypyridin-5-yl)-N-(3,5-dichloropyridin-4-yl)-1,4-dihydro[1,8]naphthylidin-4-one-3-carboxamide] | 
20 | 1.1 |  | O=C(Nc1c(Cl)cncc1Cl)c1cn(-c2ccc(O)nc2)c2ncccc2c1=O [Example 147, N-(3,5-Dichloropyridin-4-yl)-1-(2-hydroxypyridin-5-yl)-1,4-dihydro[1,8]naphthylidin-4-one-3-carboxamide] | 
30 | 5.9 |  | O=C(Nc1c(Cl)cncc1Cl)c1cn(-c2nccs2)c2ncccc2c1=O [Example 152, N-(3,5-Dichloropyridin-4-yl)-1-(2-thiazolyl)-1,4-dihydro[1,8]naphthylidin-4-one-3-carboxamide] | 

SMILES | IC50 ([1]; Peritoneal macrophage) [nM] | IC50 [3] [nM] | IC50 [1] [nM] | death [2]
O=C(Nc1c(Cl)cccc1Cl)c1cn(-c2ccc(F)cc2)c2ncccc2c1=O [Example 99, N-(2,6-Dichlorophenyl)-1-(4-fluorophenyl)-1,4-dihydro[1,8]naphthylidin-4-one-3-carboxamide] | 25 | 3.4 |  | no death
O=C(Nc1cccnc1)c1cn(-c2ccc(F)cc2)c2ncccc2c1=O [Example 102, 1-(4-Fluorophenyl)-N-(3-pyridyl)-1,4-dihydro[1,8]naphthylidin-4-one-3-carboxamide] | 100 | 35 |  | no death
O=C(Nc1ccncc1)c1cn(-c2ccc(F)cc2)c2ncccc2c1=O [Example 103, 1-(4-Fluorophenyl)-N-(4-pyridyl)-1,4-dihydro[1,8]naphthylidin-4-one-3-carboxamide] | 100 | 59 |  | no death
O=C(Nc1c(Cl)cncc1Cl)c1cn(-c2ccc(F)cc2)c2ncccc2c1=O [Example 106, N-(3,5-Dichloropyridin-4-yl)-1-(4-fluorophenyl)-1,4-dihydro[1,8]naphthylidin-4-one-3-carboxamide] |  | 0.4 | 10 | no death
O=C(Nc1ccncc1)c1cn(-c2ccncc2)c2ncccc2c1=O [Example 139, 1,N-bis-(4-Pyridyl)-1,4-dihydro[1,8]naphthylidin-4-one-3-carboxamide] | 100 | 70 |  | no death
O=C(Nc1c(Cl)cncc1Cl)c1cn(-c2ccncc2)c2ncccc2c1=O [Example 141, N-(3,5-Dichloropyridin-4-yl)-1-(4-pyridyl)-1,4-dihydro[1,8]naphthylidin-4-one-3-carboxamide] | 1 | 0.5 |  | no death
